Drawing on article PMC6904362, “Omeprazole Treatment Enhances Nitrogen Use Efficiency Through Increased Nitrogen Uptake and Assimilation in Corn” (Frontiers in Plant Science, 2019), this text covers Km for one molecule.

The assay has as its system T1, purified NADH-Nitrate Reductase (NR) from Arabidopsis thaliana.
T1 construct: gene NIA2; commercial Arabidopsis NR is probably recombinant NIA2
As to the kind of experiment: NR activity assay, nitrite detection (sulphanilamide/NED, […] nm), nonlinear regression. The format is biochemical. Conditions: 0.8 mM NADH, 50 mM Hepes/KOH pH 7.5, FAD, Na2MoO4; nitrate 0.08-1.5 mM; no omeprazole.

The Km is the substrate concentration at which the rate is half of its maximum. Take `O=[N+]([O-])O` [NO3 ^-, nitrate]: the Km came to 408 µM.
